For the first experiment, the target named is DOT1L(1-416) (Homo sapiens, UniProt Q8TEK3). Description: Determination of IC50: DOT1L(1-416) methyltransferase assay, 3H-SAM, oligonucleosome substrate, Flashplate. The conditions noted are these: DOT1L IC50, class symbols. The experiment is classed as biochemical. The procedure, abridged: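 Compounds in 10-point 3-fold DMSO dilutions were tested in reactions started with substrate mix of 200 nM [3H]-SAM, 600 nM unlabeled SAM and 20 nM oligonucleosome. Reactions ran 120 min at room temperature and were quenched with 100 μM SAM. Labeled substrate was captured on streptavidin Flashplates and counted by scintillation to give IC50.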
DOT1L(1-416), sequence (Q8TEK3 1-416): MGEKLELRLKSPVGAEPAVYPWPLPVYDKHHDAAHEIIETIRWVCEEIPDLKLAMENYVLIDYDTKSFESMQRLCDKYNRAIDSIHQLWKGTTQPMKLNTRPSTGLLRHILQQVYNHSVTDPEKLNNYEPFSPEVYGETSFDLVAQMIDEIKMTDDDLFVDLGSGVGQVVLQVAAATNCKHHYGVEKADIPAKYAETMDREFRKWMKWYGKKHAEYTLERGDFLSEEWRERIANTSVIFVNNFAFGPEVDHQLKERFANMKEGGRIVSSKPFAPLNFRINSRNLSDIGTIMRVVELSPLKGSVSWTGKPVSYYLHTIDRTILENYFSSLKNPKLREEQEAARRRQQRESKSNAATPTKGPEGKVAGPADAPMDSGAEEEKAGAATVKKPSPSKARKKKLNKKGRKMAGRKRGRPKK
`CC(C)[N+]([O-])(C[C@H]1O[C@@H](n2cnc3c(N)ncnc32)[C@H](O)[C@@H]1O)[C@H]1C[C@@H](CCc2nc3cc(C(C)(C)C)ccc3[nH]2)C1` (stereo partly drawn) [Compound 106, (1r,3S)-N-(((2R,3S,4R,5R)-5-(6-amino-9H-purin-9-yl)-3,4-dihydroxy-tetrahydrofuran-2-yl)methyl)-3-(2-(5-(tert-butyl)-1H-benzo[d]imidazol-2-yl)ethyl)-N-isopropyl-cyclobutanamine oxide] returned an IC50 of less than 100 nM.

The experiment is the same for the next values; noted with them: class symbols; read-out: DOT1L IC50.
In the case of `CC(C)N(CC1CC(Cc2nc3cc(C(F)(F)F)ccc3[nH]2)C1)C[C@H]1C[C@@H](n2ccc3c(N)ncnc32)[C@H](O)[C@@H]1O` (some centres unmarked) [Compound 15], the IC50 lay within 1000 to 10000 nM.
The same measure, in the same setting: the same measure for `CC(C)(C)c1ccc2[nH]c(CC[C@H]3C[C@@H](N(CC4CC4)C[C@H]4C[C@@H](n5ccc6c(N)ncnc65)[C@H](O)[C@@H]4O)C3)nc2c1` [Compound 40, (1R,2S,3R,5R)-3-(4-amino-7H-pyrrolo[2,3-d]pyrimidin-7-yl)-5-((((1r,3S)-3-(2-(5-(tert-butyl)-1H-benzo[d]imidazol-2-yl)ethyl)cyclobutyl)(cyclopropylmethyl)amino)methyl)cyclopentane-1,2-diol]: less than 100 nM; for `CC(C)N(C[C@H]1O[C@@H](n2cnc3c(N)ncnc32)[C@H](O)[C@@H]1O)[C@H]1C[C@H](CCc2nc3cc(C(C)(C)C#N)ccc3[nH]2)C1` [Compound 129, 2-(2-(2-((1R,3s)-3-((((2R,3S,4R,5R)-5-(6-amino-9H-purin-9-yl)-3,4-dihydroxytetrahydro-furan-2-yl)methyl)(isopropyl)amino)cyclobutyl)ethyl)-1H-benzo[d]imidazol-5-yl)-2-methylpropanenitrile]: less than 100 nM.
Take `CN(C[C@H]1O[C@@H](n2ccc3c(N)ncnc32)[C@H](O)[C@@H]1O)[C@H]1C[C@H](CCc2nc3cc(C(C)(C)C)ccc3[nH]2)C1` [Compound 92, (2R,3R,4S,5R)-2-(4-amino-7H-pyrrolo[2,3-d]pyrimidin-7-yl)-5-((((1s,3R)-3-(2-(5-(tert-butyl)-1H-benzo[d]imidazol-2-yl)ethyl)cyclobutyl) (methyl)amino)methyl) tetrahydrofuran-3,4-diol]: the IC50 was less than 100 nM.
In the case of `CC(C)(C)c1ccc2[nH]c(CC[C@H]3C[C@H](N(CC4CC4)C[C@H]4C[C@@H](n5ccc6c(N)ncnc65)[C@H](O)[C@@H]4O)C3)nc2c1` [Compound 54, (1R,2S,3R,5R)-3-(4-amino-7H-pyrrolo[2,3-d]pyrimidin-7-yl)-5-((((1s,3R)-3-(2-(5-(tert-butyl)-1H-benzo[d]imidazol-2-yl)ethyl)cyclobutyl)(cyclopropylmethyl)amino)methyl)cyclopentane-1,2-diol], the IC50 is less than 100 nM.
The same measure, in the same setting: the figure for `CC(C)(C)c1ccc2[nH]c(CCC3CC(N(C[C@H]4C[C@@H](n5ccc6c(N)ncnc65)[C@H](O)[C@@H]4O)CC(F)(F)F)C3)nc2c1` (stereo partly drawn) [Compound 66, (1R,2S,3R,5R)-3-(4-amino-7H-pyrrolo[2,3-d]pyrimidin-7-yl)-5-(((3-(2-(5-(tert-butyl)-1H-benzo[d]imidazol-2-yl)ethyl)cyclobutyl) (2,2,2-trifluoroethyl)amino)methyl)cyclopentane-1,2-diol] is 100 to 1000 nM; for `CN(C[C@H]1O[C@@H](n2cnc3c(N)ncnc32)[C@H](O)[C@@H]1O)[C@H]1C[C@@H](CCc2nc3cc(C4(C)CCC4)ccc3[nH]2)C1` [Compound 30, (2R,3R,4S,5R)-2-(6-amino-9H-purin-9-yl)-5-((methyl((1r,3S)-3-(2-(5-(1-methylcyclobutyl)-1H-benzo[d]imidazol-2-yl)ethyl)cyclobutyl)amino)methyl)tetrahydrofuran-3,4-diol] it is less than 100 nM; for `CC(C)(C)c1ccc2[nH]c(CC[C@H]3C[C@@H](N(CC4CCC4)C[C@H]4C[C@@H](n5ccc6c(N)ncnc65)[C@H](O)[C@@H]4O)C3)nc2c1` [Compound 42, (1R,2S,3R,5R)-3-(4-amino-7H-pyrrolo[2,3-d]pyrimidin-7-yl)-5-((((1r,3S)-3-(2-(5-(tert-butyl)-1H-benzo[d]imidazol-2-yl)ethyl)cyclobutyl)(cyclobutylmethyl)amino)methyl)cyclopentane-1,2-diol] it is less than 100 nM.
Take `CN(C[C@H]1C[C@@H](n2ccc3c(N)ncnc32)[C@H](O)[C@@H]1O)C1CC(CCc2nc3cc(OC(F)(F)F)ccc3[nH]2)C1` (stereo partly drawn) [Compound 24, (1R,2S,3R,5R)-3-(4-amino-7H-pyrrolo[2,3-d]pyrimidin-7-yl)-5-((methyl(3-(2-(5-(trifluoromethoxy)-1H-benzo[d]imidazol-2-yl)ethyl)cyclobutyl)amino)methyl)cyclopentane-1,2-diol]: the IC50 was less than 100 nM.
Same read-out and setting: the figure for `CN(C[C@H]1O[C@@H](n2cnc3c(N)ncnc32)[C@H](O)[C@@H]1O)[C@H]1C[C@H](CCc2nc3cc(C4COC4)ccc3[nH]2)C1` [Compound 65, (2R,3R,4S,5R)-2-(6-amino-9H-purin-9-yl)-5-((methyl((1s,3R)-3-(2-(5-(oxetan-3-yl)-1H-benzo[d]imidazol-2-yl)ethyl)cyclobutyl)amino)methyl)tetrahydrofuran-3,4-diol] is 100 to 1000 nM.
With `CN(C[C@H]1O[C@@H](n2cnc3c(N)ncnc32)[C@H](O)[C@@H]1O)C1CC(CCc2nc3cc(C4(C)CCC4)ccc3[nH]2)C1` (stereo partly drawn) [Compound 33, (2R,3R,4S,5R)-2-(6-amino-9H-purin-9-yl)-5-((methyl(3-(2-(5-(1-methylcyclobutyl)-1H-benzo[d]imidazol-2-yl)ethyl)cyclobutyl)amino)methyl)tetrahydrofuran-3,4-diol], the IC50 was less than 100 nM.
For the molecule `CC(C)(C)c1ccc2[nH]c(CCC3CC(N(C[C@H]4O[C@@H](n5cnc6c(N)ncnc65)[C@H](O)[C@@H]4O)CC(F)(F)F)C3)nc2c1` (stereo partly drawn) [Compound 82, (2R,3R,45,5R)-2-(6-amino-9H-purin-9-yl)-5-(((3-(2-(5-(tert-butyl)-1H-benzo[d]imidazol-2-yl)ethyl)cyclobutyl) (2,2,2-trifluoroethyl)amino)methyl)tetrahydrofuran-3,4-diol], the concentration for half-maximal inhibition (IC50) lay within 100 to 1000 nM.
Same read-out and setting: the figure for `CN(C[C@H]1O[C@@H](n2ccc3c(N)ncnc32)[C@H](O)[C@@H]1O)[C@H]1C[C@@H](CCc2nc3cc(OC(F)(F)F)ccc3[nH]2)C1` [Compound 94, (2R,3R,4S,5R)-2-(4-amino-7H-pyrrolo[2,3-d]pyrimidin-7-yl)-5-((methyl((1r,3S)-3-(2-(5-(trifluoromethoxy)-1H-benzo[d]imidazol-2-yl)ethyl)cyclobutyl)amino)methyl) tetrahydrofuran-3,4-diol] is less than 100 nM.
Still for that read-out and setting: the figure for `CC(C)N(C[C@@H]1C[C@@H](O)[C@H](n2ccc3c(N)ncnc32)C1)C1CC(CCc2nc3cc(Cl)c(C(F)(F)F)cc3[nH]2)C1` (stereo partly drawn) [Compound 84, (1R,2R,4S)-2-(4-amino-7H-pyrrolo[2,3-d]pyrimidin-7-yl)-4-(((3-(2-(5-chloro-6-(trifluoromethyl)-1H-benzo[d]imidazol-2-yl)ethyl)cyclobutyl) (isopropyl)amino)methyl)cyclopentanol] is 1000 to 10000 nM; for `CC(C)N(C[C@H]1O[C@@H](n2ccc3c(N)ncnc32)[C@H](O)[C@@H]1O)[C@H]1C[C@@H](CCc2nc3cc(OC(F)(F)F)ccc3[nH]2)C1` [Compound 87, (2R,3R,4S,5R)-2-(4-amino-7H-pyrrolo[2,3-d]pyrimidin-7-yl)-5-((isopropyl((1r,3S)-3-(2-(5-(trifluoromethoxy)-1H-benzo[d]imidazol-2-yl)ethyl)cyclobutyl)amino)methyl)tetrahydrofuran-3,4-diol] it is less than 100 nM.
On the same count and under the same terms, the same measure for `CC(C)N(C[C@H]1O[C@@H](n2cnc3c(N)ncnc32)[C@H](O)[C@@H]1O)[C@H]1C[C@H](CCc2nc3cc(C4CCC4)ccc3[nH]2)C1` [Compound 114, (2R,3R,4S,5R)-2-(6-amino-9H-purin-9-yl)-5-((((1s,3R)-3-(2-(5-cyclobutyl-1H-benzo[d]imidazol-2-yl)ethyl)cyclobutyl) (isopropyl)amino)methyl)tetrahydrofuran-3,4-diol]: less than 100 nM; for `CN(C[C@H]1C[C@@H](n2ccc3c(N)ncnc32)[C@H](O)[C@@H]1O)[C@H]1C[C@@H](CCc2nc3cc(Br)ccc3[nH]2)C1` [Compound 47, (1R,2S,3R,5R)-3-(4-amino-7H-pyrrolo[2,3-d]pyrimidin-7-yl)-5-((((1r,38)-3-(2-(5-bromo-1H-benzo[d]imidazol-2-yl)ethyl)cyclobutyl)(methyl)amino)methyl)cyclopentane-1,2-diol]: less than 100 nM.
As to `CC(C)(C)c1ccc2[nH]c(CC[C@H]3C[C@H](N(CC4CCC4)C[C@H]4C[C@@H](n5ccc6c(N)ncnc65)[C@H](O)[C@@H]4O)C3)nc2c1` [Compound 59, (1R,2S,3R,5R)-3-(4-amino-7H-pyrrolo[2,3-d]pyrimidin-7-yl)-5-((((1s,3R)-3-(2-(5-(tert-butyl)-1H-benzo[d]imidazol-2-yl)ethyl)cyclobutyl)(cyclobutylmethyl)amino)methyl)cyclopentane-1,2-diol], the IC50 was less than 100 nM.

The experiment is the same for the next values; noted with them: read-out: DOT1L IC50.
For `CC(C)N(C[C@H]1O[C@@H](n2ccc3c(N)ncnc32)[C@H](O)[C@@H]1O)[C@H]1C[C@@H](CCc2nc3cc(OC(F)(F)F)ccc3[nH]2)C1` [Compound 87, (2R,3R,4S,5R)-2-(4-amino-7H-pyrrolo[2,3-d]pyrimidin-7-yl)-5-((isopropyl((1r,3S)-3-(2-(5-(trifluoromethoxy)-1H-benzo[d]imidazol-2-yl)ethyl)cyclobutyl)amino)methyl)tetrahydrofuran-3,4-diol], the IC50 turned out to be 0.8 nM.

The term IC50 denotes the concentration that inhibits the measured activity by half.

(Values after patent US8580762B2, “Substituted purine and 7-deazapurine compounds” (Epizyme, Inc., priority 2010, dated 2013).)
